Experimental data reported in article PMC7080406 (eLife, 2020).
Values joined by “and” are separate entries in the source; they are usually repeats but may differ in a detail not shown here. Identical values can stand only once. “Also recorded” adds a separate entry of the source. Like-named read-outs stand apart in the source and are kept apart here.

How the values were obtained:
MT2 [1] = target: T1, MT2 (Homo sapiens, UniProt P49286); assay: [3H]melatonin competition radioligand binding, MT2 membranes; parameters: expressed in transfected cells; host or cells: HEK293T (ATCC CRL-11268), transient transfection; settings: read-out: MT2 pKi ± SEM (converted)
T1 sequence (P49286 1-362): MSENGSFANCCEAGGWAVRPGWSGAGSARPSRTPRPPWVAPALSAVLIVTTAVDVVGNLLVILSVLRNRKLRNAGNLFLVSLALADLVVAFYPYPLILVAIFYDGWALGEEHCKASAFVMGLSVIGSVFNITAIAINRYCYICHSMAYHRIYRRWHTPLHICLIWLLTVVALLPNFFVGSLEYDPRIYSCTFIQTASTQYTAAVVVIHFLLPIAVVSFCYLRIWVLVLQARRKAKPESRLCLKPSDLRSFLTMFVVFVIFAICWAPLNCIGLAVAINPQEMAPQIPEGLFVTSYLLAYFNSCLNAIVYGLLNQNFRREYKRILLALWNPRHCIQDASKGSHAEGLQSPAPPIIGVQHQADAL
Protocol: (§1) The Radioligand binding assays were conducted by the NIMH Psychoactive Drug Screening Program (PDSP). The NIMH PDSP is directed by Bryan L. Roth, MD, PhD, at the University of North Carolina at Chapel Hill, North Carolina, and Program Officer Jamie Driscoll at NIMH, Bethesda, MD. Binding assay procedures and protocols are also available online at http://pdspdb.unc.edu/pdspWeb/?site=assays. […] Assay plates were sealed and incubated for 4 hr at 37°C in a humidified incubator until harvesting. Plates were harvested using vacuum filtration onto 0.3% polyethyleneimine pre-soaked 96-well Filtermat A (PerkinElmer) and washed three times with cold wash buffer (50 mM Tris, pH 7.4). Filters were dried and melted with a scintillation cocktail (Meltilex, PerkinElmer). Radioactivity was counted using a Wallac TriLux Microbeta counter (PerkinElmer). Results were analyzed using GraphPad Prism 7.0.

MT2 [2] = target: T1, MT2; assay: GloSensor Gi/o-mediated cAMP production inhibition assay, MT2; assay type: cell-based; parameters: expressed in transfected cells; host or cells: HEK293T (ATCC CRL-11268), transient transfection; settings: for MT2/MT1 Selectivity: Antilog (log(Emax/EC50) MT2 - log (Emax/EC50) MT1), values below 1 = MT1 selectivity; for EC50: Gi/o mediated, read-out: MT2 EC50; for Emax: MT2, activation compared to melatonin, read-out: MT2 Emax ± SEM; for MT2 LE: ligand efficiency (based on EC50)
Protocol: (§2) Briefly, HEK293 T cells (as above) were transiently co-transfected with receptor (MT1 or MT2) and GloSensor cAMP (Promega) plasmids overnight, plated in Poly-L-Lysine coated 384-well white clear bottom plates in DMEM + 1% dialyzed FBS. Cells were used for assays at a minimum of 6 hr after plating. Culture medium was first removed and cells were stimulated with drugs in assay buffer (1x HBSS, 20 mM HEPES, 1 mg/ml BSA, 0.1 mg/ml ascorbic acid, pH 7.4) for 15 min at room temperature (this and all the following steps), followed by addition of a mixture of isoproterenol (final of 100 nM) and luciferin (final of 1 mM) for Gi/o-cAMP production inhibition assays and luciferin (final of 1 mM) for Gs-cAMP production assays. The plates were counted for luminescence after 25 min in a luminescence plate reader. Results were analyzed using GraphPad Prism 7.0.

MT1 [3] = target: T2, MT1 (Homo sapiens, UniProt P48039); assay: GloSensor Gi/o-mediated cAMP production inhibition assay, MT1; assay type: cell-based; settings: for EC50: Gi/o mediated; for MT1 LE: ligand efficiency (based on EC50); for Emax: read-out: MT1 Emax ± SEM
T2 construct: expressed in transfected cells; host or cells: HEK293T (ATCC CRL-11268), transient transfection
T2 sequence (P48039 whole entry): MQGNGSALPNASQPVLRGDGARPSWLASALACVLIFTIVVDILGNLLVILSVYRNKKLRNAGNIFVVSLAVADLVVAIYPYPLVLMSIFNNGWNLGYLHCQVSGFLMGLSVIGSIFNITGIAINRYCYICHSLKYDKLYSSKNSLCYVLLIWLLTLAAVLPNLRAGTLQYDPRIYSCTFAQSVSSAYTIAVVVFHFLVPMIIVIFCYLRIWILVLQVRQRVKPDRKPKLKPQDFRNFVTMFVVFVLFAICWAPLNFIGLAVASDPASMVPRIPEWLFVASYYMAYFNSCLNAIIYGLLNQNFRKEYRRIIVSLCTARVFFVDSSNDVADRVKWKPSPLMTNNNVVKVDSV
Protocol: as §2

MT1 [4] = target: T2, MT1; assay: [3H]melatonin competition radioligand binding, MT1 membranes; settings: read-out: MT1 pKi ± SEM (converted)
Protocol: as §1

[5] = test system: panel of 47 common drug targets (GPCRs, ion-channels and transporters); assay: Binding profiling at a panel of 47 common drug targets; settings: final concentration of 10 μM
Protocol: as §1, with “http://pdspdb.unc.edu/pdspWeb/?site=assays. All the radioligand binding assays were performed using membranes prepared from transiently transfected HEK293T cells (purchased from ATCC, CRL-11268, authenticated by the supplier using morphology, growth characteristics, and STR profiling and certified mycoplasma-free) and in standard binding buffer (50 mM Tris, 10 mM MgCl2, 0.1 mM EDTA, 0.1% BSA, 0.01% ascorbic acid, pH 7.4) as recently reported ([Stauch et al., 2019]).” for “http://pdspdb.unc.edu/pdspWeb/?site=assays.”

[6] = target: T3, MT1 Y281F mutant receptor (Homo sapiens, UniProt P48039, Y281F); assay: Tango β-arrestin recruitment assay, MT1 Y281F mutant; assay type: cell-based; settings: normalized individually (basal 0%, maximum 100%); mean ± SEM, minimum of 3 assays; read-out: pEC50, Tango, MT1 Y281F (converted)
T3 construct: expressed in transfected cells; host or cells: HTLA cells (HEKT based)
T3 sequence (P48039 whole entry Y281F): as the sequence (P48039 whole entry) above, with Y281F counted along it
Protocol: (§3) In brief, HTLA cells were transiently transfected with receptor TANGO DNA constructs overnight in DMEM with 10% FBS. Transfected cells were then plated into poly-L-Lys coated 384-well plates using DMEM supplemented with 1% dialyzed FBS. After 6 hr incubation, drug dilutions, prepared in DMEM with 1% dFBS, were added for incubation overnight (16–20 hr). Medium and drug solutions were removed, Bright-Glo reagent (20 uL/well) was added for luminescence counting 20 min later. Results were analyzed in GraphPad Prism 7.0.

[7] = target: T4, MT1 N162Q mutant receptor (Homo sapiens, UniProt P48039, N162Q); assay: Tango β-arrestin recruitment assay, MT1 N162Q mutant; assay type: cell-based
T4 construct: expressed in transfected cells; host or cells: HTLA cells (HEKT based)
T4 sequence (P48039 whole entry N162Q): as the sequence (P48039 whole entry) above, with N162Q counted along it
Protocol: as §3

MT1 wildtype (WT) = target: T5, MT1 wildtype (WT) (Homo sapiens, UniProt P48039); assay: Tango β-arrestin recruitment assay, MT1 wildtype; assay type: cell-based
T5 construct: host or cells: HTLA cells (HEKT based)
T5 sequence (P48039 whole entry): as the sequence (P48039 whole entry) above
Protocol: as §3

[8] = SEM, N = 3, read-out: MT1 pEC50 ± SEM (converted)

| SMILES | Ki (MT2 [1]) | MT2/MT1 Selectivity (MT2 [2]) | EC50 (MT2 [2]) | Emax (MT2 [2]) | MT2 LE (MT2 [2]) | EC50 (MT1 [3]; [8]) | EC50 (MT1 [3]; read-out: MT1 EC50) | MT1 LE (MT1 [3]) | Emax (MT1 [3]) | Ki (MT1 [4]) | binding at panel of 47 common drug targets [5] | EC50 [6] | increase of potency, MT1 N162Q versus WT ([7]; Tango) | EC50 ([7]; normalized individually (basal 0%, maximum 100%), mean ± SEM, minimum of 3 assays, read-out: pEC50, Tango, MT1 N162Q (converted)) | EC50 (MT1 wildtype (WT); normalized individually (basal 0%, maximum 100%), mean ± SEM, minimum of 3 assays, read-out: pEC50, Tango, MT1 WT (converted)) | β-arrestin activity at MT1 (MT1 wildtype (WT); result in words) | G-protein (Gi) signaling at MT1 (MT1 [3]; result in words) | EC50 (MT1 [3]; text value, read-out: MT1 EC50) |
| --- | --- | --- | --- | --- | --- | --- | --- | --- | --- | --- | --- | --- | --- | --- | --- | --- | --- | --- |
| COc1cccc([C@@H]2C[C@H]2CNC(=O)C(N)=O)c1 (racemic) [Compound 23, rac-N'-{[(1R,2R)-2-(3-methoxyphenyl)cyclopropyl]methyl}ethanediamide] | 2750 nM | 2.7 fold | 20.4 nM | 91.7 ± 3% | 0.60 kcal/mol per non-hydrogen atom | 69.2 nM | 57.5 nM | 0.56 kcal/mol per non-hydrogen atom | 96.9 ± 5.3% | 3800 nM | – | – | – | – | – | – | – | – |
| CC(=O)NCC1CCCCN1c1ccnc(C)n1 (stereo not drawn) [Compound 29, N-{[1-(2-methylpyrimidin-4-yl)piperidin-2-yl]methyl}acetamide] | 2450 nM | 3.3 fold | 34.7 nM | < 70% | 0.58 kcal/mol per non-hydrogen atom | 148 nM | 144 nM | 0.53 kcal/mol per non-hydrogen atom | 87.5 ± 4.5% | 6030 nM | – | – | – | – | – | – | – | – |
| COc1cccc(CNc2nc(C3CC3)no2)c1 [Compound 37, 3-cyclopropyl-N-[(3-methoxyphenyl)methyl]-1,2,4-oxadiazol-5-amine] | 3550 nM | >1000.0 fold | 141 nM | 61.1 ± 9.1% | 0.53 kcal/mol per non-hydrogen atom | – | > 30000 nM | – | – | 8510 nM | did not show any substantial binding | 11700 nM | 2 fold | 2240 nM | 4170 nM | substantial β-arrestin activity | devoid of Gi signaling; also recorded: completely lacks G-protein signaling | – |
| COc1cccc(Cn2c(N)cc(=O)[nH]c2=O)c1 [Compound 44, 6-amino-1-[(3-methoxyphenyl)methyl]-1,2,3,4-tetrahydropyrimidine-2,4-dione] | 11200 nM | 267 fold and 267.2 fold | 263 nM | 88.9 ± 6.3% | 0.51 kcal/mol per non-hydrogen atom | – | 57500 nM | 0.33 kcal/mol per non-hydrogen atom | 72.8 ± 4.7% | 64600 nM | – | – | – | – | – | – | – | – |
| CC(=O)c1sc2nc3c(cc2c1N)CCC3 [Compound 45] | 5500 nM | 17 fold and 16.9 fold | 427 nM | 75 ± 7.4% | 0.56 kcal/mol per non-hydrogen atom | – | 8710 nM | 0.44 kcal/mol per non-hydrogen atom | 90.6 ± 14.3% | 28800 nM | – | – | – | – | – | – | – | – |
| NC(=O)c1cc(C(=O)c2ccccc2Cl)c[nH]1 [Compound 47] | 1230 nM | 187 fold and 186.9 fold | 10 nM and 10.2 nM | 91.7 ± 3% | 0.66 kcal/mol per non-hydrogen atom | – | 2340 nM | 0.46 kcal/mol per non-hydrogen atom | 112 ± 5.2% | 26300 nM | – | – | – | – | – | – | – | 2340 nM |
| COC(=O)c1[nH]c2cc(OC)ccc2c1N [Compound 54] | 2750 nM | 36.9 fold | 18.2 nM | 75 ± 3.7% | 0.68 kcal/mol per non-hydrogen atom | 871 nM | 741 nM | 0.54 kcal/mol per non-hydrogen atom | 82.8 ± 4.3% | 9330 nM | – | – | – | – | – | – | – | – |
| COc1cccc(CNC(=O)c2ccno2)c1 [Compound 57, N-[(3-methoxyphenyl)methyl]-1,2-oxazole-5-carboxamide] | 4270 nM | 10.3 fold | 132 nM | < 70% | 0.57 kcal/mol per non-hydrogen atom | 1910 nM | 1780 nM | 0.47 kcal/mol per non-hydrogen atom | 87.5 ± 9.1% | 14500 nM | – | – | – | – | – | – | – | – |
| Nc1cc(=O)[nH]c(=S)n1CCc1ccccc1 [Compound 62] | 3240 nM | 875.9 fold | 52.5 nM | < 70% | 0.60 kcal/mol per non-hydrogen atom | 40700 nM | 42700 nM | 0.36 kcal/mol per non-hydrogen atom | 54.1 ± 10% | 47900 nM | – | – | – | – | – | – | – | – |
| COc1ccc2[nH]cc(CCNC(C)=O)c2c1 [Melatonin, N-acetyl-5-methoxytryptamine, reference compound] | – | – | – | – | – | – | – | – | 100 ± 5.6% | – | – | – | – | – | – | – | – | – |
